Values of other authors as cited in patent US20220313671A1 (Chiesi Farmaceutici S.p.A., priority 2011, published 2022).

Question: What does the source list for `CCCC(=O)OCOC(=O)C1=C(C)NC(C)=C(C(=O)OC)C1c1cccc(Cl)c1Cl` (stereo not drawn) [clevidipine]?
Answer: full offset of activity (rapid offset of activity): 5 to 15 min; onset of activity (rapid onset of activity): 2 to 4 min; return of blood pressure to pre-treatment levels (time after discontinuation of clevidipine): 5 to 15 min
